Test results published in ChEMBL document CHEMBL1201862, “PubChem BioAssay data set” (2004).
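Method: 48-hour compound exposure of cells in 96-well plates, five concentrations, linear interpolation of endpoints. Here, GI50 denotes the concentration required for 50% inhibition of growth.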 Calls of active or inactive are those of the source. No stated cut-off is given here; in the data, active = GI50 up to about 1.1 µM and inactive = higher.

Columns and labels:
Test in all cases: NCI tumour cell line growth inhibition, 48 h
UO-31 = test system: UO-31
Malme-3M = test system: Malme-3M
SF-295 = test system: SF-295
OVCAR-8 = test system: OVCAR-8
SK-MEL-28 = test system: SK-MEL-28
K562 = test system: K562
U-251 = test system: U-251
SW-620 = test system: SW-620
SK-OV-3 = test system: SK-OV-3
HL-60 = test system: HL-60
SNB-19 = test system: SNB-19
OVCAR-5 = test system: OVCAR-5
COLO 205 = test system: COLO 205
RXF 393 = test system: RXF 393
NCI-H23 = test system: NCI-H23
SK-MEL-2 = test system: SK-MEL-2
MOLT-4 = test system: MOLT-4
UACC-62 = test system: UACC-62
A549 = test system: A549
HCT-116 = test system: HCT-116

Compound	GI50 (UO-31)	GI50 (Malme-3M)	GI50 (SF-295)	GI50 (OVCAR-8)	GI50 (SK-MEL-28)	GI50 (K562)	GI50 (U-251)	GI50 (SW-620)	GI50 (SK-OV-3)	GI50 (HL-60)	GI50 (SNB-19)	GI50 (OVCAR-5)	GI50 (COLO 205)	GI50 (RXF 393)	GI50 (NCI-H23)	GI50 (SK-MEL-2)	GI50 (MOLT-4)	GI50 (UACC-62)	GI50 (A549)	GI50 (HCT-116)
CN(CCO)Cc1ncccc1O	> 100 µM (inactive)	> 100 µM (inactive)	> 100 µM (inactive)	> 100 µM (inactive)	> 100 µM (inactive)	0.495 µM (active)	> 100 µM (inactive)	> 100 µM (inactive)	> 100 µM (inactive)	64.3 µM (inactive)	> 100 µM (inactive)	> 100 µM (inactive)	> 100 µM (inactive)	> 100 µM (inactive)	> 100 µM (inactive)	> 100 µM (inactive)	25.5 µM (inactive)	> 100 µM (inactive)	> 100 µM (inactive)	–
O=C1c2ccccc2N(O)C1(c1ccccc1)C1CCCC=C1N1CCOCC1 (centres undefined)	22.5 µM (inactive)	–	> 100 µM (inactive)	> 100 µM (inactive)	83.8 µM (inactive)	39.8 µM (inactive)	87.5 µM (inactive)	> 100 µM (inactive)	> 100 µM (inactive)	50.4 µM (inactive)	57.9 µM (inactive)	> 100 µM (inactive)	> 100 µM (inactive)	22.4 µM (inactive)	> 100 µM (inactive)	–	20.8 µM (inactive)	35.8 µM (inactive)	50.4 µM (inactive)	28.5 µM (inactive)
C=CCCN1CCc2c([nH]c3ccccc23)C1C(=O)O (centres undefined)	> 100 µM (inactive)	> 100 µM (inactive)	> 100 µM (inactive)	–	> 100 µM (inactive)	> 100 µM (inactive)	> 100 µM (inactive)	> 100 µM (inactive)	> 100 µM (inactive)	93.1 µM (inactive)	> 100 µM (inactive)	> 100 µM (inactive)	> 100 µM (inactive)	> 100 µM (inactive)	78 µM (inactive)	> 100 µM (inactive)	> 100 µM (inactive)	> 100 µM (inactive)	> 100 µM (inactive)	> 100 µM (inactive)
COc1cccc(OCC(=N/NC(=O)c2ccncc2)/N=C/c2ccncc2)c1	–	> 100 µM (inactive)	> 100 µM (inactive)	> 100 µM (inactive)	> 100 µM (inactive)	> 100 µM (inactive)	> 100 µM (inactive)	> 100 µM (inactive)	> 100 µM (inactive)	> 100 µM (inactive)	> 100 µM (inactive)	> 100 µM (inactive)	> 100 µM (inactive)	52 µM (inactive)	> 100 µM (inactive)	> 100 µM (inactive)	> 100 µM (inactive)	> 100 µM (inactive)	> 100 µM (inactive)	> 100 µM (inactive)
O=[N+]([O-])c1ccc(N2N=C(c3ccc(NCc4nc5ccccc5[nH]4)cc3)CC2c2ccco2)cc1 (centres undefined)	6.53 µM (inactive)	28.5 µM (inactive)	23.6 µM (inactive)	18.1 µM (inactive)	37.4 µM (inactive)	20.4 µM (inactive)	29.8 µM (inactive)	34.7 µM (inactive)	82.2 µM (inactive)	17.6 µM (inactive)	23.4 µM (inactive)	49 µM (inactive)	30.8 µM (inactive)	42.2 µM (inactive)	19.9 µM (inactive)	> 10 µM (inactive)	10.4 µM (inactive)	19.5 µM (inactive)	34.8 µM (inactive)	16.2 µM (inactive)
CC(=O)Nc1ccc(C(=O)NN2C(=O)C(Cl)/C2=C/c2ccco2)cc1 (centres undefined)	> 100 µM (inactive)	> 100 µM (inactive)	> 100 µM (inactive)	> 100 µM (inactive)	> 100 µM (inactive)	> 100 µM (inactive)	> 100 µM (inactive)	> 100 µM (inactive)	> 100 µM (inactive)	> 100 µM (inactive)	> 100 µM (inactive)	> 100 µM (inactive)	> 100 µM (inactive)	–	> 100 µM (inactive)	> 100 µM (inactive)	> 100 µM (inactive)	> 100 µM (inactive)	> 100 µM (inactive)	> 100 µM (inactive)
CC1=CC(C)C(C)N(CC2=NCCN2)c2ccccc21 (centres undefined)	47.3 µM (inactive)	21.4 µM (inactive)	67.3 µM (inactive)	> 80.9 µM (inactive)	18.7 µM (inactive)	36.9 µM (inactive)	76.6 µM (inactive)	> 100 µM (inactive)	96.8 µM (inactive)	> 47 µM (inactive)	> 100 µM (inactive)	> 57.7 µM (inactive)	16.9 µM (inactive)	27.6 µM (inactive)	> 100 µM (inactive)	44.8 µM (inactive)	55 µM (inactive)	49.3 µM (inactive)	> 87.3 µM (inactive)	40 µM (inactive)
CC(=O)OCc1c(C)c2ccccc2n1C(C)=O	> 100 µM (inactive)	25 µM (inactive)	56.9 µM (inactive)	49 µM (inactive)	> 100 µM (inactive)	23.7 µM (inactive)	36.3 µM (inactive)	47 µM (inactive)	81.3 µM (inactive)	23.9 µM (inactive)	> 100 µM (inactive)	> 100 µM (inactive)	44.2 µM (inactive)	33 µM (inactive)	55 µM (inactive)	21 µM (inactive)	29.7 µM (inactive)	36.3 µM (inactive)	53 µM (inactive)	44.5 µM (inactive)
Cn1cc(-c2csc(-c3cn(C)c4ccccc34)n2)c2ccccc21	> 100 µM (inactive)	19.1 µM (inactive)	23.4 µM (inactive)	25.6 µM (inactive)	61.5 µM (inactive)	11.2 µM (inactive)	32.4 µM (inactive)	59.4 µM (inactive)	–	> 100 µM (inactive)	42.7 µM (inactive)	95.9 µM (inactive)	> 100 µM (inactive)	14.1 µM (inactive)	84.5 µM (inactive)	38.8 µM (inactive)	14.1 µM (inactive)	32.2 µM (inactive)	37.6 µM (inactive)	43.5 µM (inactive)
CC1CC/C(=C\c2ccc(N(C)C)cc2)C2=C1C(c1ccc(N(C)C)cc1)NC(=S)N2 (centres undefined)	> 100 µM (inactive)	> 100 µM (inactive)	> 100 µM (inactive)	> 100 µM (inactive)	> 100 µM (inactive)	> 100 µM (inactive)	> 100 µM (inactive)	> 100 µM (inactive)	> 100 µM (inactive)	> 100 µM (inactive)	> 100 µM (inactive)	> 100 µM (inactive)	> 100 µM (inactive)	> 100 µM (inactive)	> 100 µM (inactive)	> 100 µM (inactive)	> 100 µM (inactive)	> 100 µM (inactive)	–	> 100 µM (inactive)
CN1C(=O)CCC1c1ccc2c(c1)oc(=O)n2C (centres undefined)	> 100 µM (inactive)	> 100 µM (inactive)	> 100 µM (inactive)	> 100 µM (inactive)	> 100 µM (inactive)	> 100 µM (inactive)	> 100 µM (inactive)	> 100 µM (inactive)	> 100 µM (inactive)	> 100 µM (inactive)	> 100 µM (inactive)	> 100 µM (inactive)	> 100 µM (inactive)	> 100 µM (inactive)	> 100 µM (inactive)	> 100 µM (inactive)	> 100 µM (inactive)	> 100 µM (inactive)	> 100 µM (inactive)	> 100 µM (inactive)
CCN(CC)c1cccc2c1/C(=N/O)CCCC2	> 100 µM (inactive)	> 100 µM (inactive)	83.8 µM (inactive)	> 100 µM (inactive)	> 100 µM (inactive)	46.8 µM (inactive)	> 100 µM (inactive)	> 100 µM (inactive)	> 100 µM (inactive)	> 100 µM (inactive)	> 100 µM (inactive)	–	> 100 µM (inactive)	90.2 µM (inactive)	> 100 µM (inactive)	> 100 µM (inactive)	65.8 µM (inactive)	> 100 µM (inactive)	> 100 µM (inactive)	92.3 µM (inactive)
CC[C@H](O)[C@H](C)C=C1SCCCS1	61.8 µM (inactive)	> 100 µM (inactive)	> 100 µM (inactive)	> 100 µM (inactive)	> 100 µM (inactive)	> 100 µM (inactive)	> 100 µM (inactive)	> 100 µM (inactive)	> 100 µM (inactive)	34.8 µM (inactive)	–	> 100 µM (inactive)	> 100 µM (inactive)	> 100 µM (inactive)	> 100 µM (inactive)	> 100 µM (inactive)	> 100 µM (inactive)	> 100 µM (inactive)	> 100 µM (inactive)	> 100 µM (inactive)
CCOC(=O)c1cc(Br)c(-c2cc(C)no2)[nH]1	29.1 µM (inactive)	20.9 µM (inactive)	31.1 µM (inactive)	35.8 µM (inactive)	32.4 µM (inactive)	–	25.5 µM (inactive)	30 µM (inactive)	41.6 µM (inactive)	24.7 µM (inactive)	80.4 µM (inactive)	49 µM (inactive)	19.8 µM (inactive)	31 µM (inactive)	24.4 µM (inactive)	34.4 µM (inactive)	82 µM (inactive)	35.2 µM (inactive)	24.9 µM (inactive)	27.3 µM (inactive)
